Some test systems named below: SK-MEL-28 melanoma; NCI-H23 lung; UO-31 renal; TK-10 renal; UACC-257 melanoma; 786-0 renal; SF-268 CNS; COLO 205 colon; HS 578T breast; SF-295 CNS; NCI-H522 lung; UACC-62 melanoma; HOP-62 NSCLC; KM12 colon; DU-145 prostate; SK-OV-3 ovarian.
What all share (experiment): growth of human tumour cells (NCI), 48 h

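Five concentrations, 48 hours, 96-well plates. TGI denotes the concentration required for complete inhibition of growth.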 Where only a bound is given, the exact number is not on record here.

With `CCOC1=NC(C(F)(F)F)(C(F)(F)F)N=C(N2CCCCC2)O1`, the TGI with SK-MEL-28 melanoma, in the assay with NCI-H23 lung, in the assay with UO-31 renal, in the assay with TK-10 renal, with UACC-257 melanoma and with 786-0 renal was more than 100 µM each time. In addition, the TGI in the assay with SF-268 CNS, with COLO 205 colon, with HS 578T breast, in the assay on SF-295 CNS, in the assay with NCI-H522 lung and in the assay on UACC-62 melanoma was more than 100 µM each time. Besides, the TGI in the assay on HOP-62 NSCLC, in the assay with KM12 colon and in the assay on DU-145 prostate was more than 100 µM each time.

On to `Cc1ccc2c(=O)c(C(=O)NNC(=S)NC3CCCCC3)c[nH]c2n1`, for which the TGI in the assay with SK-MEL-28 melanoma, in the assay on NCI-H23 lung, in the assay with UO-31 renal, in the assay on TK-10 renal, with UACC-257 melanoma and with 786-0 renal was more than 100 µM throughout. The TGI with SF-268 CNS, in the assay on COLO 205 colon, with HS 578T breast, in the assay on SF-295 CNS, with NCI-H522 lung and in the assay with UACC-62 melanoma was more than 100 µM each time. Besides, the TGI with HOP-62 NSCLC, in the assay on KM12 colon and in the assay on DU-145 prostate was more than 100 µM throughout.

For the molecule `COc1cc2c3c(c1OC)C(=O)C(=O)C1=C3N(CCC1)CC2`, the TGI with SK-MEL-28 melanoma was more than 100 µM; in the assay on NCI-H23 lung, 86.3 µM; with UO-31 renal, more than 100 µM; in the assay on TK-10 renal, more than 100 µM; in the assay with UACC-257 melanoma, 67 µM; in the assay with 786-0 renal, more than 100 µM. Further, the TGI in the assay with SF-268 CNS was determined as 92.1 µM; with COLO 205 colon it was 35.3 µM; with HS 578T breast, 47.6 µM; with SF-295 CNS, 76.9 µM; in the assay with NCI-H522 lung, 72.2 µM; in the assay with UACC-62 melanoma it was 42 µM. The TGI in the assay on HOP-62 NSCLC was 96.9 µM; with KM12 colon, 44.5 µM; with DU-145 prostate, more than 100 µM.

Turning to `CCOC(OCC)[C@H](N)[C@@H](O)[C@@H](O)[C@H]1COC(C)(C)O1`, the TGI in the assay with SK-MEL-28 melanoma, in the assay on NCI-H23 lung, with UO-31 renal, in the assay with TK-10 renal, with UACC-257 melanoma and in the assay on 786-0 renal was more than 100 µM throughout. The TGI with SF-268 CNS, with COLO 205 colon, in the assay on HS 578T breast, in the assay on SF-295 CNS, in the assay with SK-OV-3 ovarian and in the assay with UACC-62 melanoma was more than 100 µM in each case. Also, the TGI in the assay on HOP-62 NSCLC, in the assay with KM12 colon and in the assay with DU-145 prostate was more than 100 µM in each case.

Turning to `COc1ccc2c(c1)OC1c3ccccc3OCC21` (stereo not given), the TGI with SK-MEL-28 melanoma, in the assay with NCI-H23 lung, in the assay on UO-31 renal, with TK-10 renal, in the assay on UACC-257 melanoma and in the assay with 786-0 renal was more than 100 µM throughout. Besides, the TGI with SF-268 CNS, with COLO 205 colon, in the assay on HS 578T breast, with SF-295 CNS, in the assay with SK-OV-3 ovarian and in the assay with UACC-62 melanoma was more than 100 µM each time. Further, the TGI in the assay with HOP-62 NSCLC, with KM12 colon and in the assay with DU-145 prostate was more than 100 µM each time.

Consider `COC(=O)/C=C/c1cnc2c(c1)oc(=O)n2C`, for which the TGI with SK-MEL-28 melanoma, with NCI-H23 lung, with UO-31 renal, in the assay on TK-10 renal, in the assay with UACC-257 melanoma and with 786-0 renal was more than 100 µM throughout. For the same molecule, the TGI in the assay on SF-268 CNS, in the assay with COLO 205 colon, with HS 578T breast, in the assay with SF-295 CNS, with SK-OV-3 ovarian and in the assay on UACC-62 melanoma was more than 100 µM each time. Besides, the TGI with HOP-62 NSCLC, in the assay with KM12 colon and in the assay on DU-145 prostate was more than 100 µM each time.

Consider `Nc1nc(Cc2ccccc2)nc(Cc2ccccc2)c1-c1ccccc1`, for which the TGI with SK-MEL-28 melanoma was more than 100 µM; in the assay on NCI-H23 lung, 45.2 µM; in the assay on UO-31 renal it was more than 100 µM; in the assay on TK-10 renal, more than 100 µM; in the assay with UACC-257 melanoma it was more than 100 µM; in the assay with 786-0 renal, 70.5 µM. For the same molecule, the TGI was 85.9 µM in the assay on SF-268 CNS; more than 100 µM with HS 578T breast; more than 100 µM in the assay with SF-295 CNS; 46.1 µM in the assay on NCI-H522 lung; 43 µM in the assay on UACC-62 melanoma; 54 µM in the assay with HOP-62 NSCLC. Moreover, the TGI came out at 75 µM in the assay on KM12 colon and 56.1 µM in the assay on DU-145 prostate.

For the molecule `S=C(S)N1CCN(c2ccccc2)CC1`, the TGI in the assay on SK-MEL-28 melanoma, with TK-10 renal, with UACC-257 melanoma, in the assay with 786-0 renal, in the assay on SF-268 CNS and with COLO 205 colon was more than 100 µM each time. Besides, the TGI in the assay with HS 578T breast, in the assay on SF-295 CNS, in the assay on NCI-H522 lung, with HOP-62 NSCLC, in the assay on KM12 colon and with DU-145 prostate was more than 100 µM in each case.

On to `COC(=O)[C@]1(Cc2ccc3ccccc3c2)CCCCCCN1C(=O)c1ccccc1`, for which the TGI in the assay on SK-MEL-28 melanoma was more than 52.1 µM; in the assay on NCI-H23 lung, more than 45.9 µM; in the assay with UO-31 renal it was more than 39.9 µM; with TK-10 renal, more than 80.8 µM; in the assay with UACC-257 melanoma, 25 µM; in the assay with 786-0 renal it was more than 53.2 µM. In addition, the TGI is more than 54 µM with SF-268 CNS; 24.5 µM in the assay with COLO 205 colon; more than 56.1 µM in the assay on HS 578T breast; more than 44.5 µM in the assay on SF-295 CNS; more than 89.8 µM in the assay on SK-OV-3 ovarian; more than 51.3 µM in the assay on UACC-62 melanoma. The TGI is more than 46.5 µM with HOP-62 NSCLC, more than 49 µM in the assay with KM12 colon and more than 68.1 µM with DU-145 prostate.

Take `CSS(C)(=O)=O`: the TGI was 48 µM in the assay on SK-MEL-28 melanoma; 50.5 µM in the assay with NCI-H23 lung; 52.1 µM in the assay with UO-31 renal; 46 µM in the assay with TK-10 renal; 45.8 µM with UACC-257 melanoma; more than 100 µM in the assay on 786-0 renal. Also, the TGI was 96.9 µM in the assay on SF-268 CNS; 40.1 µM with COLO 205 colon; more than 100 µM in the assay with HS 578T breast; 54.5 µM in the assay on SF-295 CNS; 37.1 µM in the assay on NCI-H522 lung; 42.3 µM with UACC-62 melanoma. The figures for the TGI in the assay with HOP-62 NSCLC, in the assay on KM12 colon and with DU-145 prostate were more than 100 µM, 87.1 µM and 45.9 µM, respectively.

On to `N#CC1=C(S)N(C2OC(CO)C(O)C(O)C2O)C(c2ccccc2)=CC1c1cccs1` (stereo not given), for which the TGI in the assay with SK-MEL-28 melanoma was 41.4 µM; in the assay on NCI-H23 lung it was more than 100 µM; in the assay with UO-31 renal, more than 100 µM; in the assay with TK-10 renal, 48.2 µM; with UACC-257 melanoma, 40.8 µM; in the assay with 786-0 renal, 35.7 µM. Moreover, the TGI with SF-268 CNS turned out to be 63.8 µM; in the assay on COLO 205 colon it was 38.6 µM; in the assay on HS 578T breast, 67 µM; in the assay with SF-295 CNS it was 34.8 µM; with NCI-H522 lung, 47.5 µM; with UACC-62 melanoma, 48.3 µM. Moreover, the TGI was 57 µM in the assay with HOP-62 NSCLC, 34.7 µM in the assay on KM12 colon and more than 10 µM in the assay on DU-145 prostate.

On to `Cc1nn(C(=O)c2ccncc2)c2c1C(c1ccc([N+](=O)[O-])cc1)SC(N)=N2` (stereo not given), for which the TGI in the assay with SK-MEL-28 melanoma, in the assay on NCI-H23 lung, in the assay with UO-31 renal, in the assay on TK-10 renal, in the assay on UACC-257 melanoma and with 786-0 renal was more than 100 µM each time. Also, the TGI in the assay with SF-268 CNS, with COLO 205 colon, in the assay with HS 578T breast, with SF-295 CNS, in the assay with SK-OV-3 ovarian and in the assay with UACC-62 melanoma was more than 100 µM in each case. Besides, the TGI with HOP-62 NSCLC, in the assay with KM12 colon and with DU-145 prostate was more than 100 µM in each case.

Turning to `O=C1/C(=C\c2cccc(Oc3ccccc3)c2)SC(c2ccccc2)N1c1cccc(Cl)c1` (stereo not given), the TGI with SK-MEL-28 melanoma, in the assay on NCI-H23 lung, with UO-31 renal, in the assay on TK-10 renal, in the assay with UACC-257 melanoma and with 786-0 renal was more than 100 µM in each case. In addition, the TGI in the assay with SF-268 CNS, in the assay on COLO 205 colon, in the assay on HS 578T breast, with SF-295 CNS, in the assay on SK-OV-3 ovarian and in the assay with UACC-62 melanoma was more than 100 µM throughout. The TGI with HOP-62 NSCLC, in the assay with KM12 colon and with DU-145 prostate was more than 100 µM each time.

In the case of `CC(C)(C)C(=O)CC(=O)C(F)(F)C(F)(F)C(F)(F)F.[Ag]`, the TGI in the assay on SK-MEL-28 melanoma was 28.3 µM; with NCI-H23 lung it was 33.1 µM; in the assay on UO-31 renal, 60.4 µM; in the assay on TK-10 renal it was 32.1 µM; in the assay with UACC-257 melanoma it was 30.1 µM; with 786-0 renal it was 33 µM. The TGI stood at 40.3 µM with SF-268 CNS; 57.9 µM in the assay on COLO 205 colon; 63.8 µM in the assay with HS 578T breast; 39.2 µM in the assay with SF-295 CNS; 44.5 µM in the assay on SK-OV-3 ovarian; 32 µM in the assay with UACC-62 melanoma. Besides, the results for the TGI in the assay on HOP-62 NSCLC, with KM12 colon and in the assay with DU-145 prostate were 50.9 µM, 50.8 µM and more than 100 µM, respectively.

With `CN(C(=O)c1ccc(Cl)cc1)C(=S)N1CCN(c2ccccc2)CC1`, the TGI in the assay on SK-MEL-28 melanoma, in the assay on NCI-H23 lung, in the assay with UO-31 renal, with TK-10 renal, in the assay on UACC-257 melanoma and with 786-0 renal was more than 100 µM in each case. Moreover, the TGI is more than 100 µM in the assay with SF-268 CNS; more than 100 µM with COLO 205 colon; 95.6 µM with HS 578T breast; more than 100 µM with SF-295 CNS; more than 100 µM in the assay with NCI-H522 lung; more than 100 µM in the assay with UACC-62 melanoma. The TGI in the assay with KM12 colon and with DU-145 prostate was more than 100 µM each time.

The record behind these values is PubChem BioAssay (NCI).
